Data on five molecules can be found in patent US10766885B1, “Silibinin 3,3′-thiodipropionic acid ester with hepatoprotective activity and a method of preparing the same” (SHAANXI UNIVERSITY OF SCIENCE AND TECHNOLOGY, priority 2020, dated 2020).

Assay [1] can be described thus: DPPH radical scavenging activity assay. In kind it is biochemical. Conditions: for DPPH Clearance rate: n = 3. An excerpt: 2,2-Diphenyl-1-picryl hydrazyl (DPPH) is an organic compound composed of a stable organic radical. In the DPPH molecule, due to the presence of multiple electron-withdrawing —NO2 and large π bonds of the benzene ring, nitrogen free radical is stabilized. Its methanol solution is purple and has a maximum absorption peak at 517 nm. After the addition of an antioxidant, DPPH captures an electron to be paired with the free electron, and the purple fades and turns into a yellow substance. The absorption at 517 nm disappears, and the degree of fading is quantitatively related to the number of electrons it captures. Based on this principle, a spectrophotometer is used to detect the change of the absorbance of the DPPH radical and the sample solution, and the ability of the sample to provide hydrogen atoms and scavenge free radicals can be measured.
Preparation of DPPH solution: measuring exact amount of 2,2-diphenyl-1-picryl hydrazyl (DPPH) and dissolving in toluene to prepare a 0.2 mmol/L DPPH solution, stored at 0° C. in dark.
Preparation of test solution: Vc (vitamin C, positive control), compound of formula (I) (sample), silibinin (control) and 3,3′-thiodipropionic acid (control). The sample solution was subjected to gradient dilution with toluene, and three sets of controls were separately dissolved in a test tube with a certain amount of toluene to prepare the same concentration gradient as the sample.
Sample liquid absorbance measurement: Take 2 mL of sample solution (Table 2 Vc, B, C), add 2 mL of DPPH solution with concentration of 2×10^−4 mol/L, mix and react in the dark at room temperature for 30 min, adjust to zero with toluene, and measure at 517 nm. The absorbance Ai was simultaneously measured for the absorbance Aj of 2 mL of toluene mixed with 2 mL of the sample solution and the absorbance Ao of 2 mL of DPPH solution mixed with 2 mL of toluene (the experimental results are shown in Table 3).
Clearance calculation: clearance rate (%)=[1−(Ai−Aj)/Ao]*100%
(In general: DPPH is a stable violet radical that fades when it is reduced.)

The subject of assay [2] is Mice with Alcoholic Liver Injury. The assay is described as follows: Protective effect on alcoholic liver injury in mice (serum ALT, AST, TG). In kind it is in vivo. Conditions: ethanol 3 g/kg/day, after 25 days. Here is the method:
The compound of formula (I) was prepared by the method of Example 7. In order to study its protective effect on alcoholic liver injury in mice, the following animal model was designed.
Three-week-old 30-35 g SPF male mice were randomly divided into normal control group, model group, low-dose group, high-dose group and tiopronin positive control group after adaptive feeding for 3 days. The normal control group and model group were fed with basic feed every day; low dose group and high dose group were fed with basic diet every day and were given the compound of formula (I) of 10 mg/kg/day and 50 mg/kg/day, respectively; tiopronin positive control group was fed with basic feed and 50 mg/kg/day tiopronin. Ethanol 3 g/kg/day (0.01 mL/g) was given to the model group, low dose group, high dose group and tiopronin positive control group. The normal control group was given distilled water of the same volume. After 25 days, fasting for 2 hours after the last administration, glutamic pyruvic transaminase (ALT), glutamic oxaloacetic transaminase (AST) and triglyceride (TG) were measured in serum by decapitation.

As for `COc1cc(C2Oc3cc([C@H]4Oc5cc(O)cc(O)c5C(=O)[C@@H]4O)ccc3OC2CO)ccc1O` (stereo partly shown) [B, Silibinin], the “DPPH Clearance rate” value in assay [1] (1.76 ppm) was 8.42%; in assay [1] (8.80 ppm) it was 9.16%; in assay [1] (21.12 ppm), 22.43%; in assay [1] (42.24 ppm), 27.10%; in assay [1] (79.20 ppm) it was 39.53%; in assay [1] (112.64 ppm), 45.87%. For the same molecule, the “DPPH Clearance rate” value in assay [1] (281.60 ppm) is reported as 60.25%; in assay [1] (492.80 ppm), 65.88%; in assay [1] (792.00 ppm), 69.85%; in assay [1] (915.20 ppm), 72.76%.

Turning to `O=C(O)CCSCCC(=O)O` [C, 3,3′-Thiodipropionic acid], the “DPPH Clearance rate” value in assay [1] (1.76 ppm) was determined as 6.85%; in assay [1] (8.80 ppm) it was 8.38%; in assay [1] (21.12 ppm), 17.13%; in assay [1] (42.24 ppm), 22.38%; in assay [1] (79.20 ppm) it was 39.55%; in assay [1] (112.64 ppm), 43.58%. The “DPPH Clearance rate” value in assay [1] (281.60 ppm) is listed as 52.23%; in assay [1] (492.80 ppm), 59.36%; in assay [1] (792.00 ppm), 64.55%; in assay [1] (915.20 ppm), 68.22%.

As to `COc1cc(C2Oc3cc([C@H]4Oc5cc(O)cc(O)c5C(=O)[C@@H]4O)ccc3OC2COC(=O)CCSCCC(=O)OCC2Oc3ccc([C@H]4Oc5cc(O)cc(O)c5C(=O)[C@@H]4O)cc3OC2c2ccc(O)c(OC)c2)ccc1O` (stereo partly drawn) [Compound of Formula (I), bis((3-(4-hydroxy-3-methoxyphenyl)-6-((2R,3R)-3,5,7-trihydroxy-4-oxochroman-2-yl)-2,3-dihydrobenzo[b][1,4]dioxin-2-yl)methyl) 3,3′-thiodipropionate], the ALT in assay [2] (10 mg/kg/day) came to 60.88 ± 9.75 U/L; in assay [2] (50 mg/kg/day), 56.17 ± 3.45 U/L. Besides, the AST in assay [2] (10 mg/kg/day) is recorded as 138.53 ± 17.85 U/L; in assay [2] (50 mg/kg/day), 132.56 ± 7.21 U/L. The values for the TG in assay [2] (10 mg/kg/day) and in assay [2] (50 mg/kg/day) were 0.973 ± 0.25 mmol/L and 0.877 ± 0.36 mmol/L, respectively. In addition, the “scavenging ability compared with the positive control Vc group” value in assay [1] is reported as “slightly weaker”. Further, the “DPPH Clearance rate” value in assay [1] (1.76 ppm) came out at 13.11%; in assay [1] (8.80 ppm), 20.80%; in assay [1] (21.12 ppm) it was 34.16%; in assay [1] (42.24 ppm) it was 44.12%; in assay [1] (79.20 ppm) it was 68.42%; in assay [1] (112.64 ppm), 75.23%. For the same molecule, the “DPPH Clearance rate” value in assay [1] (281.60 ppm) came to 81.21%; in assay [1] (492.80 ppm), 84.70%; in assay [1] (792.00 ppm), 87.06%; in assay [1] (915.20 ppm) it was 89.96%. Besides, in assay [1] (at the same concentration), the “scavenging ability to scavenge DPPH free radicals compared with silibinin (B) and 3,3′-thiodipropionic acid (C) alone” value is listed as “better”. Moreover, the “highest scavenging rate of DPPH radical” value in assay [1] (in the determined concentration range) came out at 89.96%.

In assay [2] (50 mg/kg/day), `CC(S)C(=O)NCC(=O)O` (stereo not shown) [Tiopronin, tiopronin] yielded an ALT of 63.45 ± 9.53 U/L, an AST of 143.32 ± 15.46 U/L and a TG of 1.336 ± 0.62 mmol/L.

For the molecule `O=C1O[C@H]([C@@H](O)CO)C(O)=C1O` [Vc, vitamin C], the “DPPH Clearance rate” value in assay [1] (1.76 ppm) was 23.16%; in assay [1] (8.80 ppm) it was 33.47%; in assay [1] (21.12 ppm), 79.63%; in assay [1] (42.24 ppm) it was 89.55%; in assay [1] (79.20 ppm), 97.42%; in assay [1] (112.64 ppm), 97.53%. Moreover, the “DPPH Clearance rate” value in assay [1] (281.60 ppm) was 98.29%; in assay [1] (492.80 ppm), 99.06%; in assay [1] (792.00 ppm), 99.10%; in assay [1] (915.20 ppm), 99.28%.
